Assay results as given in PubChem BioAssay (NCI).
Where “and” joins values, the source holds several entries; their conditions need not be identical. Identical values can stand only once.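 Dose response: 5 concentrations. Exposure: 48 h. Format: 96-well plates. Endpoint: linear interpolation; highest concentration if not reached. Abbreviation: GI50, concentration required for 50% inhibition of growth. TGI marks complete inhibition of growth.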

Test system: HOP-62 NSCLC
Assay: growth of human tumour cells (NCI), 48 h

`CC(=O)c1c(-c2ccc(Cl)cc2)c(C#N)c(=S)n(C2OC(CO)C(O)C(O)C2O)c1-c1ccccc1` (stereo unspecified) was tested, and the GI50 was 39.8 µM and > 100 µM.

Going from `CC(=O)c1c(-c2ccc(Cl)cc2)c(C#N)c(=S)n(C2OC(CO)C(O)C(O)C2O)c1-c1ccccc1` (stereo unspecified) to `CN(C)C=Nc1ccc2c3c(cccc13)-c1ccccc1-2`, the TGI falls from greater than 100 µM to 29.5 µM.

`COC(=O)c1ccc2cc(O)c(O)cc2c1` and `COC(=O)C1C(O)C(C)C(O)C(C)(O)C=C(C)C2=C3C(=C(C)C(=O)c4c(O)c(c(C)c(OC(C)=O)c43)NC(=O)C(C)=C/C=C\C(C)(O)C(O)C(C)C1O)OCO2` (stereo unspecified) cannot be ordered by TGI: greater than 100 µM for the first, greater than 100 µM for the second.

Test system: HOP-92 NSCLC
Assay: growth of human tumour cells (NCI), 48 h

`CC(=O)c1c(-c2ccc(Cl)cc2)c(C#N)c(=S)n(C2OC(CO)C(O)C(O)C2O)c1-c1ccccc1` (stereo unspecified) was tested, and the TGI was > 100 µM and 74.1 µM.

Going from `COC(=O)c1ccc2cc(O)c(O)cc2c1` to `CN(C)C=Nc1ccc2c3c(cccc13)-c1ccccc1-2`, the TGI falls from greater than 100 µM to 24.9 µM.

Compound `COC(=O)C1C(O)C(C)C(O)C(C)(O)C=C(C)C2=C3C(=C(C)C(=O)c4c(O)c(c(C)c(OC(C)=O)c43)NC(=O)C(C)=C/C=C\C(C)(O)C(O)C(C)C1O)OCO2` (stereo unspecified) has a TGI greater than 100 µM.

Test system: HS 578T breast
Assay: growth of human tumour cells (NCI), 48 h

First: CC(=O)c1c(-c2ccc(Cl)cc2)c(C#N)c(=S)n(C2OC(CO)C(O)C(O)C2O)c1-c1ccccc1 (stereo unspecified)
Second: CN(C)C=Nc1ccc2c3c(cccc13)-c1ccccc1-2
The TGI of the first is higher: greater than 100 µM for the first, 24.9 µM for the second.

`COC(=O)c1ccc2cc(O)c(O)cc2c1` and `COC(=O)C1C(O)C(C)C(O)C(C)(O)C=C(C)C2=C3C(=C(C)C(=O)c4c(O)c(c(C)c(OC(C)=O)c43)NC(=O)C(C)=C/C=C\C(C)(O)C(O)C(C)C1O)OCO2` (stereo unspecified) cannot be ordered by TGI: greater than 100 µM for the first, greater than 100 µM for the second.

Test system: HT29 colon
Assay: growth of human tumour cells (NCI), 48 h

Compared with `CC(=O)c1c(-c2ccc(Cl)cc2)c(C#N)c(=S)n(C2OC(CO)C(O)C(O)C2O)c1-c1ccccc1` (stereo unspecified), `CN(C)C=Nc1ccc2c3c(cccc13)-c1ccccc1-2` is lower in TGI: greater than 100 µM for the first, 21.6 µM for the second.

`COC(=O)c1ccc2cc(O)c(O)cc2c1` and `COC(=O)C1C(O)C(C)C(O)C(C)(O)C=C(C)C2=C3C(=C(C)C(=O)c4c(O)c(c(C)c(OC(C)=O)c43)NC(=O)C(C)=C/C=C\C(C)(O)C(O)C(C)C1O)OCO2` (stereo unspecified) cannot be ordered by TGI: greater than 100 µM for the first, greater than 100 µM for the second.

Test system: IGROV1 ovarian
Assay: growth of human tumour cells (NCI), 48 h

First: CC(=O)c1c(-c2ccc(Cl)cc2)c(C#N)c(=S)n(C2OC(CO)C(O)C(O)C2O)c1-c1ccccc1 (stereo unspecified)
Second: CN(C)C=Nc1ccc2c3c(cccc13)-c1ccccc1-2
The TGI of the first is higher: greater than 100 µM for the first, 28.8 µM for the second.

`COC(=O)c1ccc2cc(O)c(O)cc2c1` and `COC(=O)C1C(O)C(C)C(O)C(C)(O)C=C(C)C2=C3C(=C(C)C(=O)c4c(O)c(c(C)c(OC(C)=O)c43)NC(=O)C(C)=C/C=C\C(C)(O)C(O)C(C)C1O)OCO2` (stereo unspecified) cannot be ordered by TGI: greater than 100 µM for the first, greater than 100 µM for the second.

Test system: K-562 leukemia
Assay: growth of human tumour cells (NCI), 48 h

With `CC(=O)c1c(-c2ccc(Cl)cc2)c(C#N)c(=S)n(C2OC(CO)C(O)C(O)C2O)c1-c1ccccc1` (stereo unspecified) the GI50 was 26 µM and > 100 µM.

Compared with `CC(=O)c1c(-c2ccc(Cl)cc2)c(C#N)c(=S)n(C2OC(CO)C(O)C(O)C2O)c1-c1ccccc1` (stereo unspecified), `CN(C)C=Nc1ccc2c3c(cccc13)-c1ccccc1-2` is lower in TGI: greater than 100 µM for the first, 22.1 µM for the second.

`COC(=O)c1ccc2cc(O)c(O)cc2c1` and `COC(=O)C1C(O)C(C)C(O)C(C)(O)C=C(C)C2=C3C(=C(C)C(=O)c4c(O)c(c(C)c(OC(C)=O)c43)NC(=O)C(C)=C/C=C\C(C)(O)C(O)C(C)C1O)OCO2` (stereo unspecified) cannot be ordered by TGI: greater than 100 µM for the first, greater than 100 µM for the second.

Test system: KM12 colon
Assay: growth of human tumour cells (NCI), 48 h

`CC(=O)c1c(-c2ccc(Cl)cc2)c(C#N)c(=S)n(C2OC(CO)C(O)C(O)C2O)c1-c1ccccc1` (stereo unspecified) and `COC(=O)C1C(O)C(C)C(O)C(C)(O)C=C(C)C2=C3C(=C(C)C(=O)c4c(O)c(c(C)c(OC(C)=O)c43)NC(=O)C(C)=C/C=C\C(C)(O)C(O)C(C)C1O)OCO2` (stereo unspecified) cannot be ordered by TGI: greater than 100 µM for the first, greater than 100 µM for the second.

Work on `COC(=O)c1ccc2cc(O)c(O)cc2c1` yielded a TGI greater than 100 µM.

Test system: LOX IMVI melanoma
Assay: growth of human tumour cells (NCI), 48 h

`CC(=O)c1c(-c2ccc(Cl)cc2)c(C#N)c(=S)n(C2OC(CO)C(O)C(O)C2O)c1-c1ccccc1` (stereo unspecified) was tested, and the GI50 was 15.9 µM and > 100 µM.

`CC(=O)c1c(-c2ccc(Cl)cc2)c(C#N)c(=S)n(C2OC(CO)C(O)C(O)C2O)c1-c1ccccc1` (stereo unspecified) was tested, and the TGI was greater than 100 µM.
